In US20060101536A1, “Eucalyptus urophylla transformation and regeneration” (ArborGen, LLC, priority 2004, published 2006):

Tests used:
[1] = test system: Elite Eucalyptus urophylla clone; assay: Auxin pre-treatment, Agrobacterium infection rate by GUS staining; format: cell-based
Protocol: GUS staining was performed to monitor the frequency of Agrobacterium infection and to ensure that the selected shoots are not escapes or chimeras. […] To determine GUS activity, the explants were incubated in a substrate comprising 100 mM phosphate buffer (pH 7.0), 0.05% dimethyl suphoxide, 0.05% Triton X-100, 10 mM EDTA, 0.5 mM potassium ferrocyanide, and 1.5 mg/ml 5-bromo-4-chloro-3-indolyl-β-D-glucuronide (X-gluc). The explants were subjected to 10 minutes of vacuum before an overnight incubation at 37° C. Following overnight incubation, GUS foci were counted.
Explants from E. urophylla and E. saligna were prepared as described in Example 1 and Agrobacterium strain GV2260 containing pWVR133 was prepared as described in Example 3. Harvested explants were incubated in the dark for 4 days either on Eucalyptus regeneration medium or a medium with various auxin-rich growth regulators. Agrobacterium culture was dripped on explants and co-cultured with the explants on the same medium for 3 days in dark. Then, explants were removed from the Agrobacterium puddle and transferred to Euc Regeneration medium supplemented with 400 mg/l timentin for 4 days. Following transfer to regeneration medium, the explants were stained for GUS expression.

E. urophylla = assay: Combining auxin with Agrobacterium inducer in pre-culture, infection by GUS staining; format: cell-based, Eucalyptus urophylla; details: Table 8
Protocol: Induced Agrobacterium culture was prepared as described in Example 3 and the culture was dripped onto each explant by pipette. Sufficient Agrobacterium culture was dripped to ensure that all the cut edges were covered with bacterial solution. Alternatively, the explants may be transformed by vacuum infiltration, floral dip, and other methods of Agrobacterium-mediated transformation. Following transformation, explants covered with Agrobacterium culture were placed in the dark for four days of co-cultivation. Alternatively, the explants may be co-cultivated with Agrobacterium under light conditions. Additionally, the explants may be co-cultivated with Agrobacterium under light or dark conditions for 2-10 days, preferably 4 days. Following co-cultivation, the explants were transferred to Euc Regeneration medium (Table 3) with 400 mg/l timentin. There is no need to wash explants. Explants were cultured on this medium for four days before transfer to a selection medium. In the present example, the selection medium is the Euc Regeneration medium supplemented with both timentin and an herbicide selection agent.
(§1) GUS staining was performed to monitor the frequency of Agrobacterium infection and to ensure that the selected shoots are not escapes or chimeras. For transformation experiments with pWVR133, the leaf and stem tissues from the regenerated shoots were stained for GUS expression immediately upon shoot development. For transformation experiments with pWVZ20, leaf and stem tissues from the regenerated shoots were stained for GUS expression when shoots are further developed and free from residual Agrobacterium. To determine GUS activity, the explants were incubated in a substrate comprising 100 mM phosphate buffer (pH 7.0), 0.05% dimethyl suphoxide, 0.05% Triton X-100, 10 mM EDTA, 0.5 mM potassium ferrocyanide, and 1.5 mg/ml 5-bromo-4-chloro-3-indolyl-β-D-glucuronide (X-gluc). The explants were subjected to 10 minutes of vacuum before an overnight incubation at 37° C. Following overnight incubation, GUS foci were counted.
In the following examples, explants from E. urophylla clones were cultured on auxin-rich pre-culture medium with or without 250 μM AS before infection. Explants were pre-cultured with Euc Regeneration medium as the control. Following pre-culture, the explants were inoculated with Agrobacterium as described in Example 5.

[2] = test system: Elite Eucalyptus urophylla clone; assay: Shoot regeneration after pre-culture in control experiments; format: cell-based; details: medium with 1.0 mg/l 2,4-D (0.5 mg/l zeatin)
From the text: In addition, the regeneration is not affected by the pre-culture in control experiments.

[3] = test system: wounded cells along the cut edges; assay: Agrobacterium inducer alone in pre-culture medium, infection by GUS staining; format: cell-based
[4] = test system: E. urophylla leaf explants; assay: Geneticin selection of NPTII transformants, GUS staining of resistant calli; format: cell-based, Eucalyptus urophylla; details: about 10 weeks selection
Protocol: as §1
E. urophylla leaf explants were infected with Agrobacterium strain GV2260 harboring pWVC33, which contains GUS gene (driven by an constitutive promoter) and NPTII gene (driven by a different constitutive promoter). Before transforming, the explants were pre-cultured for 4 days on a medium having auxin enrichment (IAA at 2 mg/l instead of 0.1 mg/l NAA in standard regeneration medium) and acetosyringone (250 μM). As described in Example 6, the explants were infected with Agrobacterium, co-cultivated on the same medium for 3 days, and then transferred to a regeneration medium supplemented with 400 mg/l timentin for 4 days. Then, the explants were transferred to a selection medium containing geneticin instead of an herbicide selection agent.
The transformants were placed on geneticin selection medium containing geneticin (either 20 or 30 mg/l). Instead of the 3- or 4-week transfer cycles used with an herbicide selection medium, the explants were transferred bi-weekly to fresh geneticin medium. […]

[5] = Table 6, 0.25 mg/l 2,4-D + 0.5 mg/l zeatin
[6] = Table 6, 1.0 mg/l 2,4-D + 0.5 mg/l zeatin
[7] = Table 7, 0.5 mg/l in EucReg Medium + 5 mg/l zeatin
[8] = Table 7, 0.5 mg/l in EucReg Medium + 5 mg/l zeatin, 25 explants
[9] = Table 7, 1.0 mg/l in EucReg Medium + 5 mg/l zeatin
[10] = Table 7, 1.0 mg/l in EucReg Medium + 5 mg/l zeatin, 25 explants
[11] = 0.25 mg/l 2,4-D + 5.0 mg/l zeatin, with or without 250 μM AS
[12] = Table 7, 2.0 mg/l in EucReg Medium + 5 mg/l zeatin
[13] = Table 7, 2.0 mg/l in EucReg Medium + 5 mg/l zeatin, 25 explants
[14] = Table 7, 3.0 mg/l in EucReg Medium + 5 mg/l zeatin
[15] = 2 mg/l IAA + 5.0 mg/l zeatin, with or without 250 μM AS
[16] = Table 7, 0.1 mg/l in EucReg Medium + 5 mg/l zeatin
[17] = Table 7, 0.1 mg/l in EucReg Medium + 5 mg/l zeatin, 25 explants
[18] = Table 6, 0.1 mg/l NAA + 5.0 mg/l zeatin (Control Regeneration Medium)
[19] = 0.1 mg/l NAA + 5.0 mg/l zeatin (Control Regeneration Medium)

Row | Compound | % GUS+ [1, 7] [%] | Avg. No. Foci/Responding Explant [1, 7] | No. GUS Foci [1, 7] | No. GUS+ [1, 8] | % GUS+ [1, 9] [%] | Avg. No. Foci/Responding Explant [1, 9] | No. GUS Foci [1, 9] | No. GUS+ [1, 10] | % GUS+ [1, 12] [%] | Avg. No. Foci/Responding Explant [1, 12] | No. GUS Foci [1, 12] | No. GUS+ [1, 13] | % GUS+ [1, 16] [%] | Avg. No. Foci/Responding Explant [1, 16] | No. GUS Foci [1, 16] | No. GUS+ [1, 17] | also measured
1 | O=C(O)COc1ccc(Cl)cc1Cl [2,4-D, 2,4-Dichlorophenoxy acetic acid] | 80 | 4.9 | 97 | 20 | 48 | 5.3 | 64 | 12 | – | – | – | – | – | – | – | – | % GUS+ [1, 5]: 17%; Avg. No. Foci/Responding Explant [1, 5]: 1.5; No. GUS Foci [1, 5]: 7; No. GUS+ ([1]; Table 6, 0.25 mg/l 2,4-D + 0.5 mg/l zeatin, 24 explants): 4; % GUS+ [1, 6]: 60%; Avg. No. Foci/Responding Explant [1, 6]: 10.3; No. GUS Foci [1, 6]: 155; No. GUS+ ([1]; Table 6, 1.0 mg/l 2,4-D + 0.5 mg/l zeatin, 25 explants): 15; % GUS+ (E. urophylla; [11]): 72%; Avg. No. Foci/Responding Explant (E. urophylla; [11]): 10.8; No. GUS Foci (E. urophylla; [11]): 388; No. GUS+ (E. urophylla; 0.25 mg/l 2,4-D + 5.0 mg/l zeatin, with or without 250 μM AS, 50 explants): 36; shoot regeneration [2]: delay of shoot regeneration
2 | O=C(O)Cc1c[nH]c2ccccc12 [IAA, indole-3-acetic acid] | – | – | – | – | 64 | 7.3 | 116 | 16 | 64 | 10.4 | 167 | 16 | – | – | – | – | % GUS+ [1, 14]: 96%; Avg. No. Foci/Responding Explant [1, 14]: 12.3; No. GUS Foci [1, 14]: 565; No. GUS+ ([1]; Table 7, 3.0 mg/l in EucReg Medium + 5 mg/l zeatin, 48 explants): 46; % GUS+ (E. urophylla; [15]): 73%; Avg. No. Foci/Responding Explant (E. urophylla; [15]): 8.0; No. GUS Foci (E. urophylla; [15]): 289; No. GUS+ (E. urophylla; 2 mg/l IAA + 5.0 mg/l zeatin, with or without 250 μM AS, 49 explants): 36
3 | COc1cc(C(C)=O)cc(OC)c1O [AS, acetosyringone] | – | – | – | – | – | – | – | – | – | – | – | – | – | – | – | – | infection ([3]; AS alone in the pre-culture medium): stimulates infection; infection of the wounded cells along the cut edges ([3]; GUS staining): increases the infection of the wounded cells along the cut edges
4 | O=C(Nc1ccccc1)Nc1cnns1 [TDZ, thiadiazuron] | 4 | 3.0 | 3 | 1 | 0 | 0.0 | 0 | 0 | – | – | – | – | 12 | 8.3 | 25 | 3 | –
5 | O=C(O)Cc1cccc2ccccc12 [NAA, naphthaleneacetic acid] | – | – | – | – | 52 | 2.7 | 35 | 13 | 36 | 3.3 | 30 | 9 | 16 | 1.3 | 5 | 4 | % GUS+ [1, 18]: 12%; Avg. No. Foci/Responding Explant [1, 18]: 2.3; No. GUS Foci [1, 18]: 6; No. GUS+ ([1]; Table 6, 0.1 mg/l NAA + 5.0 mg/l zeatin (Control Regeneration Medium), 25 explants): 3; % GUS+ (E. urophylla; [19]): 22%; Avg. No. Foci/Responding Explant (E. urophylla; [19]): 3.4; No. GUS Foci (E. urophylla; [19]): 37; No. GUS+ (E. urophylla; 0.1 mg/l NAA + 5.0 mg/l zeatin (Control Regeneration Medium), 50 explants): 11
6 | CN[C@@H]1[C@@H](O)[C@@H](O[C@@H]2[C@@H](O)[C@H](O[C@H]3O[C@H]([C@@H](C)O)[C@@H](O)[C@H](O)[C@H]3N)[C@@H](N)C[C@H]2N)OC[C@]1(C)O [Geneticin] | – | – | – | – | – | – | – | – | – | – | – | – | – | – | – | – | No. GUS+ Calli ([4]; Geneticin 20 mg/l, Regular shaded light, 5 calli stained): 0; No. GUS+ Calli ([4]; Geneticin 30 mg/l, Dark, 6 calli stained): 4; No. GUS+ Calli ([4]; Geneticin 30 mg/l, Regular shaded light, 17 calli stained): 13
